# Results published in patent US9500656B2, “Methods for the identification, assessment, and treatment of patients with cancer therapy” (Millennium Pharmaceuticals, Inc., priority 2006, dated 2016).
# Assays:
# Assay type in all cases: in vivo, human
# [1] = tested on: relapsed multiple myeloma; assay: Phase 2 clinical study M34100-024 (first relapse)
# Text: (§1) See Richardson P G, et al. N Engl J Med., 348:2609-17 (2003). […] See Jagannath, Br J Haematol. 127:165-72 (2004). Patient samples and response criteria from patients participating in these studies, as well as the following additional studies described below were sought for use in pharmacogenomic analyses to identify markers associated with patient survival.
# multiple myeloma [2] = assay: Response (EBMT criteria) in the pharmacogenomic patient subset; conditions: for CR (number of patients) / MR (number of patients) / NC (number of patients) / PD (number of patients) / PR (number of patients): study 039, pharmacogenomic patients
# Experimental: (§2) During the study, disease response was assessed according to the European Group for Blood and Marrow Transplant (EBMT) criteria as presented in Table C.
# A total of 264 patient samples were assessed for pharmacogenomic analyses. These patient samples were collected from the clinical trials of bortezomib for the treatment of multiple myeloma (see Table E). […] All pharmacogenomic analyses relied on the European Group for Blood and Marrow Transplant (EBMT) criteria of response category.
# multiple myeloma [3] = assay: Phase 2 clinical study M34100-025 (second or greater relapse, refractory to last prior therapy); conditions: bortezomib alone
# Text: as §1
# [4] = tested on: relapsed or refractory multiple myeloma; assay: Open-label randomized study of bortezomib versus high-dose dexamethasone (Protocol M34101-039); conditions: for survival: 22 month median follow-up, 44% events occurred; for One-year survival: in vivo
# Experimental: A multicenter, open-label, randomized study was conducted, comprising 627 enrolled patients with relapsed or refractory multiple myeloma (Protocol M34101-039). See Richardson et. al., N. Engl. J. Med., 352:2487-2498 (2005).
# Randomization was to be stratified, based on the number of lines of prior therapy (one prior line versus more than one prior line of therapy), time of progression relative to treatment (progression while on their most recent therapy or within 6 months of stopping their most recent therapy, or relapse >6 months after receiving their most recent therapy), and screening β2-microglobulin levels (>2.5 mg/L versus ≦2.5 mg/L).
# Patients assigned to the high-dose dexamethasone group received treatment for a maximum of 280 days. Patients in this treatment group received up to four 5-week treatment cycles, followed by up to five 4-week treatment cycles. Within each 5-week treatment cycle, the patient received dexamethasone 40 mg/day PO, once daily on Days 1 to 4, 9 to 12, and 17 to 20 of a 35-day cycle. Within each 4-week treatment cycle, the patient received dexamethasone 40 mg/day PO once daily on Days 1 to 4 of a 28 day cycle.
# as §2
# See Richardson P G, et al. [submitted NEJM].
# Disease progression was determined by Blade criteria as described in Table C and above. […] The date of progression was determined by computer algorithm. P-value from log-rank test adjusted by actual randomization factors. See, Richardson et al., New Engl J Med., submitted.
# [5] = best confirmed response, bortezomib n = 315, dexamethasone n = 312
# [6] = difference in response rates, bortezomib versus dexamethasone
# [7] = pharmacogenomic set of patients, EBMT criteria
smiles,measurement,setting,value
"CC(C)C[C@H](NC(=O)[C@H](Cc1ccccc1)NC(=O)c1cnccn1)B(O)O [bortezomib, N-pyrazinecarbonyl-L-phenylalanine-L-leucineboronic acid]",CR+PR rate,[1]; bortezomib 1.0 mg/m^2,30%
same,CR+PR rate,[1]; bortezomib 1.3 mg/m^2,38%
same,CR (number of patients),multiple myeloma [2],5
same,MR (number of patients),multiple myeloma [2],5
same,NC (number of patients),multiple myeloma [2],19
same,PD (number of patients),multiple myeloma [2],13
same,PR (number of patients),multiple myeloma [2],25
same,CR+PR rate,multiple myeloma [3]; 53 of 193 patients,27%
same,overall response rate (CR+PR+MR),multiple myeloma [3]; 67 of 193 patients,35%
same,survival,[4],30 months
same,Complete Response,[4]; [5],20 (6) n (%)
same,Minor Response,[4]; [5],25 (8) n (%)
same,Near CR: IF+,[4]; [5],21 (7) n (%)
same,Progressive Disease,[4]; [5],22 (7) n (%)
same,SWOG Remission,[4]; [5],46 (15) n (%)
same,decrease in risk of death,"[4]; bortezomib group versus dexamethasone, first year after enrollment",41%
same,"Difference (95% CI), CR + PR + MR",[4]; [6],"0.12 (0.04, 0.19)"
same,"Difference (95% CI), Complete Response",[4]; [6],"0.06 (0.03, 0.09)"
same,"Difference (95% CI), Minor Response",[4]; [6],"−0.09 (−0.14, −0.04)"
same,"Difference (95% CI), Near CR: IF+",[4]; [6],"0.06 (0.03, 0.09)"
same,"Difference (95% CI), No Change",[4]; [6],"−0.04 (−0.12, 0.04)"
same,"Difference (95% CI), Overall Response Rate (CR + PR)",[4]; [6],"0.20 (0.14, 0.27)"
same,"Difference (95% CI), Partial Response",[4]; [6],"0.15 (0.08, 0.21)"
same,"Difference (95% CI), Progressive Disease",[4]; [6],"−0.06 (−0.11, −0.01)"
same,"Difference (95% CI), SWOG Remission",[4]; [6],"0.09 (0.05, 0.14)"
same,One-year survival,[4],80%
C[C@@H]1C[C@H]2[C@@H]3CCC4=CC(=O)C=C[C@]4(C)[C@@]3(F)[C@@H](O)C[C@]2(C)[C@@]1(O)C(=O)CO [dexamethasone],CR+PR rate,multiple myeloma [2]; [7],22.2%
same,overall response rate,multiple myeloma [2]; [7],39.7%
same,CR (number of patients),multiple myeloma [2],1
same,MR (number of patients),multiple myeloma [2],11
same,NC (number of patients),multiple myeloma [2],16
same,PD (number of patients),multiple myeloma [2],22
same,PR (number of patients),multiple myeloma [2],13
same,survival,[4],24 months
same,Complete Response,[4]; [5],2 (<1) n (%)
same,Minor Response,[4]; [5],52 (17) n (%)
same,Near CR: IF+,[4]; [5],3 (<1) n (%)
same,Overall Response Rate (CR + PR),[4]; [5],56 (18) n (%)
same,Partial Response,[4]; [5],54 (17) n (%)
same,Progressive Disease,[4]; [5],41 (13) n (%)
same,SWOG Remission,[4]; [5],17 (5) n (%)
same,One-year survival,[4],66%
